These compounds were tested against T1, CCR9 (Homo sapiens, UniProt P51686) (assay: CCR9 activity in one of the chemotaxis, binding or calcium mobilization assays). Settings: assay not specified per compound.
T1 construct: chemokine expressing cells (such as THP-1 cells for CCR2 assay or MOLT-4 cells for CCR9 assay); host or cells: MOLT-4
T1 sequence (P51686 1-369): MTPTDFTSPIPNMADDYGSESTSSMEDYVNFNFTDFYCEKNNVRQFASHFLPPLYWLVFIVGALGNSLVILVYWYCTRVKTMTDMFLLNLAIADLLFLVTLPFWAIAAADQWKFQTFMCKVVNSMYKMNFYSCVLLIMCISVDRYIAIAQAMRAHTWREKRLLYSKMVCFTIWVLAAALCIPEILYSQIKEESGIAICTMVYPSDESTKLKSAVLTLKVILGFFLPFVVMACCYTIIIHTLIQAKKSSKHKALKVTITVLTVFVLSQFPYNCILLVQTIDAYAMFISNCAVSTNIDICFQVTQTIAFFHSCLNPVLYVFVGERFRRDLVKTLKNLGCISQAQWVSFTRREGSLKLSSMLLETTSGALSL
Format: cell-based
Experimental: Conventional migration assay was used to determine the efficacy of potential receptor antagonists in blocking migration mediated through chemokines (such as CCR2 or CCR9). This assay was routinely performed using the ChemoTX® microchamber system with a 5-μm pore-sized polycarbonate membrane. To begin such an assay, chemokine expressing cells (such as THP-1 cells for CCR2 assay or MOLT-4 cells for CCR9 assay) were harvested by centrifugation of cell suspension at 1000 RPM on a GS-6R Beckman centrifuge. The cell pellet was resuspended in chemotaxis buffer (HBSS with 0.1% BSA) at 10×10^6 cells/mL for CCR2 assay (5×10^6 cells/mL for CCR9 assay). Test compounds at desired concentrations were prepared from 10 mM stock solutions by serial dilutions in chemotaxis buffer. An equal volume of cells and compounds were mixed and incubated at room temperature for 15 minutes. Afterwards, 20 μL of the mixture was transferred onto the porous membrane of a migration microchamber, with 29 μL of chemokine ligand (0.1 nM chemokine MCP-1 protein for CCR2 assay or […] chemokine TECK protein for CCR9 assay) placed at the lower chamber. Following an incubation at 37° C. (90-minute for CCR2; 150-minute for CCR9), during which cells migrated against the chemokine gradient, the assay was terminated by removing the cell drops from atop the filter. To quantify cells migrated across the membrane, 5 μL of 7×CyQUANT® solution was added to each well in the lower chamber, and the fluorescence signal measured on a Spectrafluor Plus fluorescence plate reader (TECAN, Durham, N.C.). The degree of inhibition was determined by comparing migration signals between compound-treated and untreated cells. IC50 calculation was further performed by non-linear squares regression analysis using Graphpad Prism (Graphpad Software, San Diego, Calif.).
Calcium flux assay measures an increase in intracellular calcium following ligand-induced receptor activation. In the screen of chemokine antagonists, it was used as a secondary assay carried out on a FLIPR® machine (Molecular Devices, Mountain View, Calif.). To begin an assay, chemokine expressing cells (such as THP-1 cells for CCR2 assay or MOLT-4 cells for CCR9 assay) were harvested by centrifugation of cell suspension, and resuspended to 1.5×10^6 cells/mL in HBSS (with 1% fetal calf serum). Cells were then labeled with a calcium indicator dye Fluo-4 AM for 45 minutes at 37° C. with gentle shaking. Following incubation, cells were pelletted, washed once with HBSS and resuspended in the same buffer at a density of 1.6×10^6 cells/mL. One hundred microliters of labeled cells were mixed with 10 μL of test compound at the appropriate concentrations on an assay plate. Chemokine protein (MCP-1 at a final concentration of 0.1 nM for CCR2 assay or TECK at a final concentration of 25 nM for CCR9 assay) to activate the receptor. The degree of inhibition was determined by comparing calcium signals between compound-treated and untreated cells. IC50 calculations were further performed by non-linear squares regression analysis using Graphpad Prism (Graphpad Software, San Diego, Calif.). […]
In the tables below, structures and activity are provided for representative compounds described herein. Activity is provided as follows for either or both of the chemotaxis assay and/or calcium mobilization assays, described above.

IC50, < 1000 nM:
Cc1nnc(-c2cc(Cl)ccc2NS(=O)(=O)c2ccc(C(C)(C)C)cc2)n1-c1cc[nH]n1 [Compound 16]
CCn1c(C)nnc1-c1cc(Cl)ccc1NS(=O)(=O)c1ccc(OC(C)C)cc1 [Compound 17, N-(4-chloro-2-(4-ethyl-5-methyl-4H-1,2,4-triazol-3-yl)phenyl)-4-isopropoxybenzenesulfonamide]
CC(C)n1cnnc1-c1ccc(Cl)cc1NS(=O)(=O)c1ccc(C(C)(C)C)cc1 [Compound 18, 4-tert-butyl-N-(5-chloro-2-(4-isopropyl-4H-1,2,4-triazol-3-yl)phenyl)benzenesulfonamide]
Cc1nnc(-c2cc(Cl)ccc2NS(=O)(=O)c2ccc(C(C)(C)C)cc2)n1CC(C)C [Compound 19, 4-tert-butyl-N-(4-chloro-2-(4-isobutyl-5-methyl-4H-1,2,4-triazol-3-yl)phenyl)benzenesulfonamide]
Cc1nnc(-c2cc(Cl)ccc2NS(=O)(=O)c2ccc(C(C)(C)C)cc2)n1C1CCNCC1 [Compound 20]
COCc1nnc(-c2cc(Cl)ccc2NS(=O)(=O)c2ccc(C(C)(C)C)cc2)n1C1CCOCC1 [Compound 21, 4-tert-butyl-N-(4-chloro-2-(5-(methoxymethyl)-4-(tetrahydro-2H-pyran-4-yl)-4H-1,2,4-triazol-3-yl)phenyl)benzenesulfonamide]
CCn1cnnc1-c1cc(F)c(F)cc1NS(=O)(=O)c1ccc(C(C)(C)C)cc1 [Compound 22, 4-tert-butyl-N-(2-(4-ethyl-4H-1,2,4-triazol-3-yl)-4,5-difluorophenyl)benzenesulfonamide]
CCn1cnnc1-c1ccc(F)cc1NS(=O)(=O)c1ccc(C(C)(C)C)cc1 [Compound 23, 4-tert-butyl-N-(2-(4-ethyl-4H-1,2,4-triazol-3-yl)-5-fluorophenyl)benzenesulfonamide]
Cc1nnc(-c2ccc(F)cc2NS(=O)(=O)c2ccc(C(C)(C)C)cc2)n1C(C)C [Compound 24, 4-tert-butyl-N-(5-fluoro-2-(4-isopropyl-5-methyl-4H-1,2,4-triazol-3-yl)phenyl)benzenesulfonamide]
CCn1cnnc1-c1c(NS(=O)(=O)c2ccc(C(C)(C)C)cc2)ccc(Cl)c1F [Compound 25, 4-tert-butyl-N-(4-chloro-2-(4-ethyl-4H-1,2,4-triazol-3-yl)-3-fluorophenyl)benzenesulfonamide]
Cc1nnc(-c2cc(Cl)ccc2NS(=O)(=O)c2ccc(C(C)(C)C)cc2)n1[C@@H](C)CO [Compound 26]
CC(=O)NCCn1c(C)nnc1-c1cc(Cl)ccc1NS(=O)(=O)c1ccc(C(C)(C)C)cc1 [Compound 27, N-(2-(3-(2-(4-tert-butylphenylsulfonamido)-5-chlorophenyl)-5-methyl-4H-1,2,4-triazol-4-yl)ethyl)acetamide]
Cc1nnc(-c2c(NS(=O)(=O)c3ccc(C(C)(C)C)cc3)ccc(Cl)c2F)n1C [Compound 28, 4-tert-butyl-N-(4-chloro-2-(4,5-dimethyl-4H-1,2,4-triazol-3-yl)-3-fluorophenyl)benzenesulfonamide]
CCn1c(C)nnc1-c1c(NS(=O)(=O)c2ccc(C(C)(C)C)cc2)ccc(Cl)c1F [Compound 29, 4-tert-butyl-N-(4-chloro-2-(4-ethyl-5-methyl-4H-1,2,4-triazol-3-yl)-3-fluorophenyl)benzenesulfonamide]
Cn1cnnc1-c1cc(Cl)ccc1NS(=O)(=O)c1ccc(C(C)(C)C)cc1 [Compound 30, 4-tert-butyl-N-(4-chloro-2-(4-methyl-4H-1,2,4-triazol-3-yl)phenyl)benzenesulfonamide]
CCn1cnnc1-c1cc(Cl)ccc1NS(=O)(=O)c1ccc(C(C)(C)C)cc1 [Compound 31, 4-tert-butyl-N-(4-chloro-2-(4-ethyl-4H-1,2,4-triazol-3-yl)phenyl)benzenesulfonamide]
CC(C)(C)c1ccc(S(=O)(=O)Nc2ccc(Cl)cc2-c2nncn2[C@H]2CCNC2)cc1 [Compound 32]
Cn1c(-c2cc(Cl)ccc2NS(=O)(=O)c2ccc(C(C)(C)C)cc2)nnc1[C@H]1CCCO1 [Compound 34]
CC(C)(C)c1ccc(S(=O)(=O)Nc2ccc(Cl)cc2-c2nncn2C2CCOC2)cc1 (stereo not shown) [Compound 35]
Cc1nnc(-c2cc(Cl)c(F)cc2NS(=O)(=O)c2ccc(C(C)(C)C)cc2)n1C [Compound 36, 4-tert-butyl-N-(4-chloro-2-(4,5-dimethyl-4H-1,2,4-triazol-3-yl)-5-fluorophenyl)benzenesulfonamide]
CC(C)(C)c1ccc(S(=O)(=O)Nc2cc(F)c(F)cc2-c2nncn2[C@H]2CCNC2)cc1 [Compound 37]
CCc1nnc(-c2cc(Cl)ccc2NS(=O)(=O)c2ccc(C(C)(C)C)cc2)n1CC [Compound 38, 4-tert-butyl-N-(4-chloro-2-(4,5-diethyl-4H-1,2,4-triazol-3-yl)phenyl)benzenesulfonamide]
CN(C)Cc1nnc(-c2cc(Cl)c(F)cc2NS(=O)(=O)c2ccc(C(C)(C)C)cc2)n1C [Compound 39, 4-tert-butyl-N-(4-chloro-2-(5-((dimethylamino)methyl)-4-methyl-4H-1,2,4-triazol-3-yl)-5-fluorophenyl)benzenesulfonamide]
Cn1c(-c2cocn2)nnc1-c1cc(Cl)ccc1NS(=O)(=O)c1ccc(C(C)(C)C)cc1 [Compound 40]
COCCc1nnc(-c2cc(Cl)ccc2NS(=O)(=O)c2ccc(C(C)(C)C)cc2)n1C [Compound 41, 4-tert-butyl-N-(4-chloro-2-(5-(2-methoxyethyl)-4-methyl-4H-1,2,4-triazol-3-yl)phenyl)benzenesulfonamide]
CC(C)(C)c1ccc(S(=O)(=O)Nc2cc(F)c(F)cc2-c2nncn2C2CCOC2)cc1 (stereo not shown) [Compound 42]
CCn1c(-c2cc(Cl)ccc2NS(=O)(=O)c2ccc(C(C)(C)C)cc2)nnc1C(C)C [Compound 43, 4-tert-butyl-N-(4-chloro-2-(4-ethyl-5-isopropyl-4H-1,2,4-triazol-3-yl)phenyl)benzenesulfonamide]
CC(C)(C)c1ccc(S(=O)(=O)Nc2cc(F)c(Cl)cc2-c2nncn2C2CCCNC2)cc1 (stereo not shown) [Compound 44]
CNCc1nnc(-c2cc(Cl)c(F)cc2NS(=O)(=O)c2ccc(C(C)(C)C)cc2)n1C [Compound 45, 4-tert-butyl-N-(4-chloro-5-fluoro-2-(4-methyl-5-((methylamino)methyl)-4H-1,2,4-triazol-3-yl)phenyl)benzenesulfonamide]
CC(C)n1c(-c2cc(Cl)ccc2NS(=O)(=O)c2ccc(C(C)(C)C)cc2)nnc1C1CCOCC1 [Compound 46]
CCc1nnc(-c2cc(Cl)c(F)cc2NS(=O)(=O)c2ccc(C(C)(C)C)cc2)n1C1CCOC1 (stereo not shown) [Compound 47]

From US8153818B2, “Triazolyl phenyl benzenesulfonamides” (ChemoCentryx, Inc., priority 2006, dated 2012)
